“Also recorded” adds a separate entry of the source. Where a name gives a salt, the structure may show the parent alone.
Key:
Type in all cases: physicochemical
[1] = Stability test: purity / related substances by high-performance liquid chromatography after storage; details: 75±5% RH; for purity by high-performance liquid chromatography: stored sealed in amber vial at 40±2° C.
Protocol: (§1) After 2 weeks and 4 weeks of storage, the occurrence and increase of related substances in each sample were evaluated by high-performance liquid chromatography, and changes were confirmed by X-ray powder diffraction analysis and differential scanning calorimetry to evaluate stability.

[2] = Stability test: properties (appearance) and X-ray powder diffraction analysis after storage; details: 40±2° C., 75±5% RH
Protocol: Diffraction patterns were obtained in the range of 3 to 40° 2θ using a X-ray powder diffractometer, and the X-ray powder diffraction analysis conditions were as follows. • Instrument: BrukerA26X1 D2 Phaser • Time per step: 0.5 s • Scanning method: Continuous PSD fast • Detector: Lynxeye (1D mode) (2) Differential Scanning Calorimetry (DSC)
as §1

[3] = Hygroscopicity test by dynamic vapor adsorption and desorption (DVS); details: for hygroscopicity compared with amorphous eribulin mesylate: 25° C. and 80% RH; for stability to moisture compared with amorphous eribulin mesylate: DVS hygroscopicity test; for crystalline form after the hygroscopicity test: after the test was completed
Protocol: Eribulin edisylate obtained in Examples 2, 5, and 7 and the amorphous eribulin mesylate, which is the active component of commercially available Halaven, were subjected to hygroscopicity test by repeating moisture adsorption and desorption once at an interval of 5% RH in an isothermal condition of 25° C. and a relative humidity of 2 to 98% using dynamic vapor adsorption and desorption (DVS) (dynamic vapor adsorption, VTI SGA-100, TA Instruments).

decrease in purity (increase in related substances) ([1]; 40±2° C., during 4 weeks) | change in properties ([2]; whole stability test period (4 weeks)) | Compound | purity by high-performance liquid chromatography ([1]; time 0 week) | purity by high-performance liquid chromatography ([1]; time 2 weeks) | purity by high-performance liquid chromatography ([1]; time 4 weeks) | purity by high-performance liquid chromatography ([1]; time 4 weeks, listed as eribulin mesylate) | change in properties ([2]; 2nd week) | change in properties ([2]; 4th week) | solid state over time in the stability test ([2]; over time) | X-ray powder diffraction analysis result (solid form) ([2]; time 0 week) | X-ray powder diffraction analysis result (solid form) ([2]; time 0 week, listed as eribulin mesylate) | X-ray powder diffraction analysis result (solid form) ([2]; time 2 weeks) | X-ray powder diffraction analysis result (solid form) ([2]; time 4 weeks) | deliquescence during the hygroscopicity test ([3]; DVS, 25° C., 2 to 98% RH) | stability to heat and humidity compared with eribulin mesylate ([1]; 40±2° C., up to 4 weeks, Ammonium Salt) | hygroscopicity compared with amorphous eribulin mesylate [3] | stability to moisture compared with amorphous eribulin mesylate ([3]; 25° C.) | crystalline form after the hygroscopicity test ([3]; DVS, 25° C., 2 to 98% RH) | Hygroscopicity (EP standard (25° C., 80% RH)) ([3]; DVS, 25° C.)
 |  | C=C1C[C@@H]2CC[C@@]34C[C@H]5O[C@H]6[C@@H](O3)[C@H]3O[C@H](CC[C@@H]3O[C@H]6[C@H]5O4)CC(=O)C[C@@H]3[C@@H](OC)[C@@H](C[C@H](O)CN)O[C@H]3C[C@H]3O[C@@H](CC[C@@H]1O2)C[C@@H](C)C3=C.CS(=O)(=O)O [Eribulin mesylate] | 99.66% | 88.00% | 7.30% | 7% | the solid deliquesced and the color changed to yellow | the deliquescent state was maintained and the color changed from yellow to brown | deliquescence was observed | amorphous | amorphous solid | deliquescence | deliquescence | deliquescence was observed |  |  |  |  | 
≤ 0.5% | No change in properties | C=C1C[C@@H]2CC[C@@]34C[C@H]5O[C@@H]6C(O[C@H]7CC[C@H](CC(=O)C[C@@H]8[C@@H](OC)[C@@H](C[C@H](O)CN)O[C@H]8C[C@H]8O[C@@H](CC[C@@H]1O2)C[C@@H](C)C8=C)O[C@@H]7[C@@H]6O3)[C@H]5O4 [Example 2, Eribulin Edisylate Ammonium Salt] | 99.73% | 99.50% | 99.35% |  |  |  |  | crystalline |  | maintain | maintain |  | excellent stability to heat and humidity; also recorded: more stable to heat and humidity | lower hygroscopicity | superior stability to moisture | initial crystalline form was maintained | 5.4%
 |  | Eribulin Edisylate Cyclohexylamine Salt [Example 5] |  |  |  |  |  |  |  |  |  |  |  |  |  | lower hygroscopicity | superior stability to moisture | initial crystalline form was maintained | 5.2%
 |  | Eribulin Edisylate Dicyclohexylamine Salt [Example 7] |  |  |  |  |  |  |  |  |  |  |  |  |  | lower hygroscopicity | superior stability to moisture | initial crystalline form was maintained | 5.6%
